Reference: publication PMC7012052, “Discovery of antimicrobial compounds targeting bacterial type FAD synthetases” (Journal of Enzyme Inhibition and Medicinal Chemistry, 2017)
In brackets after ≈: the same amount, converted by molar mass. Where two headings read alike, the source gives them in different places. Marks after values point to notes of the source that are not given here.

Experiments:
CaFADS FMNAT activity = molecular target: T1, CaFADS FMNAT activity (Corynebacterium ammoniagenes, UniProt Q59263); test: FMNAT activity of CaFADS: residual activity, IC50, inhibition mechanism (HPLC); assay type: biochemical; conditions: for Inhibition mechanism / Ki: CaFADS FMNAT; for Ki: global Lineweaver–Burk fit; for remaining activity at 250 µM: pH 7, read-out: % Residual FMNAT activity; for remaining activity at 50 µM: read-out: Residual activity (FMNAT)
T1 construct: Recombinant CaFADS was overexpressed in BL21 (DE3) E. coli cells and purified as previously described; made in house; host or cells: E. coli BL21 (DE3)
Description: (§1) Then, the RFK and FMNAT reactions were individually assayed in the presence of the HTS hits at 25 °C. Reaction mixtures contained 50 µM ATP, 5 µM RF, 0.4 µM CaFADS in 20 mM PIPES, pH 7.0, 0.8 mM MgCl2, when assaying the RFK activity, and 50 µM ATP, 10 µM FMN, 0.4 µM CaFADS in 20 mM PIPES, pH 7.0, 10 mM MgCl2 when measuring the FMNAT reaction. […] Finally, reactions were stopped by boiling the samples at 100 °C for 5 min, and the precipitated protein was eliminated through centrifugation. The transformation of RF into FMN or FAD was evaluated through flavins separation by HPLC, as previously described. […] When assaying the HTS hits against the FMNAT activity of SpnFADS, similar conditions were used but samples contained 3 mM sodium dithionite to maintain the flavin in its reduced state. Data were processed as previously reported. All the experiments were performed in triplicate.
(§2) Experiments were performed and analysed through HPLC as described above. Positive controls (without any hit compound) were included in every reaction set. DMSO concentration was kept at 2.5% in all samples. All the experiments were performed in triplicate.
All the experiments were carried out in 20 mM PIPES, 10 mM MgCl2, pH 7.0, 2.5% DMSO at 25 °C, being the final reaction volume 500 µl. The reactions were initiated by addition of CaFADS at a final concentration of ∼40 nM, followed by 1 min incubation. The flavin composition of the supernatant was analysed as previously described. All the experiments were performed in triplicate. The effect of the inhibitors on Km and Vmax was determined by fitting the data sets to the Michaelis–Menten model. Additionally, data were globally fit to Lineweaver–Burk equations for competitive, uncompetitive, non-competitive or mixed inhibition, yielding Ki, as well as Ki′ when applying, for each compound (Equations (1–4), respectively).

SpnFADS FMNAT activity = SpnFADS FMNAT activity (Streptococcus pneumoniae, UniProt A0A0H2UPY5); test: biochemical
Description: as §1, §2

SpnFADS RFK activity = SpnFADS RFK activity (Streptococcus pneumoniae, UniProt A0A0H2UPY5); test: biochemical; conditions: for IC50: compounds assayed 0–100 μM, 25 °C
Description: as §1, §2

S. pneumoniae ATCC 49619 = test: MIC by resazurin microplate assay (broth microdilution); assay type: cell-based, Streptococcus pneumoniae
[1] = tested on: M. tuberculosis ATCC 27,294; test: as above; assay type: cell-based, Mycobacterium tuberculosis
[2] = tested on: C. ammoniagenes ATCC 6872; test: as above; assay type: cell-based, Corynebacterium ammoniagenes; conditions: Corynebacterium ammoniagenes, ATCC6872, 16 h
CaFADS RFK activity = molecular target: T2, CaFADS RFK activity (Corynebacterium ammoniagenes, UniProt Q59263); test: RFK activity of CaFADS in the presence of HTS hits (flavins separated by HPLC); assay type: biochemical; conditions: pH 7, read-out: % Residual RFK activity
T2 construct: Recombinant CaFADS was overexpressed in BL21 (DE3) E. coli cells and purified as previously described; made in house; host or cells: E. coli BL21 (DE3)
Description: as §1

CaFADS = molecular target: T3, CaFADS (Corynebacterium ammoniagenes, UniProt Q59263); test: Isothermal titration calorimetry (ITC) of hits binding to CaFADS; conditions: ITC 25 °C
T3 construct: Recombinant CaFADS was overexpressed in BL21 (DE3) E. coli cells and purified as previously described; made in house; host or cells: E. coli BL21 (DE3)
Description: ITC experiments were performed to characterise the protein’s affinity for the selected compounds, as also the thermodynamic parameters that drive the interaction. Experiments were carried out in an AutoITC200 (MicroCal) thermostated at 25 °C. In these experiments, ∼400 µM of each compound were used to titrate ∼25 µM CaFADS contained in a 200 µL cell. However, when saturation of the protein was not reached, higher concentrations of compounds were employed. The titrations were performed by stepwise injections of the titrating compound. Up to 19 injections of 2 µl were added to the cell sample and mixed using a 1000 rpm stirrer syringe. The compounds and the protein were dissolved in 20 mM PIPES, pH 7.0, 10 mM MgCl2 and degassed prior to titration. DMSO was added to the protein and ligand samples, until reach a final concentration of 3%. The association constant (Ka), the enthalpy variation (ΔH) and the binding stoichiometry (N), were obtained through non-lineal regression of the data to a model for one or two independent binding sites, implemented in Origin 7.0 (OriginLab) as previously described[27]^,[29]. The entropic contribution (−TΔS), the Gibbs free energy (ΔG) and the dissociation constant (Kd) were obtained through essential thermodynamic equations.

[3] = saturating ATP (regarding the FMN substrate)
[4] = saturating FMN (regarding the ATP substrate)
[5] = saturating ATP, varying FMN, inhibitor 0.2 μM
[6] = saturating ATP, varying FMN, inhibitor […]
[7] = saturating FMN, varying ATP, inhibitor 0.2 μM
[8] = saturating FMN, varying ATP, inhibitor 0.4 μM
[9] = saturating FMN, varying ATP, inhibitor […]
[10] = read-out: RFK activity Res. activity
[11] = for 24: Site 1–2, average value where N ≈ 2

T3 sequence (Q59263 whole entry): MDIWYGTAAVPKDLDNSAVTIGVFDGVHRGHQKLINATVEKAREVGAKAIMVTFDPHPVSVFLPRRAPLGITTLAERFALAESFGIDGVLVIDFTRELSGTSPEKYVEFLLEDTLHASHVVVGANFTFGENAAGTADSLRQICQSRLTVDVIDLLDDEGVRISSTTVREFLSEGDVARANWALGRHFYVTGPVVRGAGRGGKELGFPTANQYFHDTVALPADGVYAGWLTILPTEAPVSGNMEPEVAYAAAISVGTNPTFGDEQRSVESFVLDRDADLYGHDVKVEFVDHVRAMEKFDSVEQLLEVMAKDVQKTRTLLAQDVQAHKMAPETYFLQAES
T1 sequence (Q59263 whole entry): as above
Chain of SpnFADS RFK activity (A0A0H2UPY5 entry or part of it): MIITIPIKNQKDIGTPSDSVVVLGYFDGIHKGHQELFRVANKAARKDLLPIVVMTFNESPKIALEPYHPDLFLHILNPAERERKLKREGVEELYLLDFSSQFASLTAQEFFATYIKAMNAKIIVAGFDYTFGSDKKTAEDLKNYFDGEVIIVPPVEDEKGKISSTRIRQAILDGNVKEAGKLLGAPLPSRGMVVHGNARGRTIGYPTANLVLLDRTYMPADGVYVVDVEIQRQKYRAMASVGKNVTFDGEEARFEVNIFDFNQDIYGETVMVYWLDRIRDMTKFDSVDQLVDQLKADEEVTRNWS
Chain of SpnFADS FMNAT activity (A0A0H2UPY5 entry or part of it): as above
T2 sequence (Q59263 whole entry): as the sequence (Q59263 whole entry) above

| Compound | IC50 (CaFADS FMNAT activity) [nM] | Inhibition mechanism (CaFADS FMNAT activity; [3]) | Inhibition mechanism (CaFADS FMNAT activity; [4]) | Ki (CaFADS FMNAT activity; saturating ATP, varying FMN) [nM] | Ki (CaFADS FMNAT activity; saturating FMN, varying ATP) [nM] | remaining activity at 250 µM (CaFADS FMNAT activity) [%] | remaining activity at 50 µM (CaFADS FMNAT activity) [%] | apparent kcat (CaFADS FMNAT activity; [5]) [min⁻¹] | apparent kcat (CaFADS FMNAT activity; [6]) [min⁻¹] | apparent kcat (CaFADS FMNAT activity; [7]) [min⁻¹] | apparent kcat (CaFADS FMNAT activity; [8]) [min⁻¹] | apparent kcat (CaFADS FMNAT activity; [9]) [min⁻¹] | remaining activity at 250 µM (CaFADS RFK activity) [%] | N (binding stoichiometry) (CaFADS; 3% DMSO, for 24: Site 1–2) | ΔG (CaFADS; [11]) | ΔH (CaFADS; [11]) | −TΔS (CaFADS; [11]) | also measured |
| --- | --- | --- | --- | --- | --- | --- | --- | --- | --- | --- | --- | --- | --- | --- | --- | --- | --- | --- |
| COc1cc(-c2ccc(/N=N/c3ccc4c(S(=O)(=O)O)cc(S(=O)(=O)O)c(N)c4c3O)c(OC)c2)ccc1/N=N/c1ccc2c(S(=O)(=O)O)cc(S(=O)(=O)O)c(N)c2c1O [HTS hit 24, Chicago sky blue 6B] | 400 ± 100 | Non-competitive | Uncompetitive | 70 ± 10 | 80 ± 30 | ≤ 5 | 3.6 ± 0.2 | 9.8 ± 1.3 | 24.3 ± 4.1 | 4.3 ± 0.4 | 1.8 ± 0.1 | 7.2 ± 0.4 | ≥ 75 | ≈ 2 | −8.1 ± 1.0^a kcal/mol | −4.2 ± 0.5^a kcal/mol | −3.9 ± 0.5^a kcal/mol | apparent kcat (CaFADS FMNAT activity; saturating ATP, varying FMN, inhibitor 0.4 μM): 5.6 ± 0.6 min⁻¹; apparent kcat (CaFADS FMNAT activity; saturating ATP, varying FMN, inhibitor 0.6 μM): 5.7 ± 1.3 min⁻¹; apparent kcat (CaFADS FMNAT activity; saturating FMN, varying ATP, inhibitor 0.04 μM): 22.5 ± 4.8 min⁻¹; activity at 100 µM (SpnFADS FMNAT activity; SpnFADS, 100 μM of each compound, 25 °C, n = 3, mean ± SD, read-out: FMNAT activity Res. activity): 0%; IC50 (SpnFADS FMNAT activity; SpnFADS, compounds assayed 0–100 μM, 25 °C, read-out: FMNAT activity IC50): 70 ± 6 µM; IC50 (SpnFADS RFK activity; SpnFADS, read-out: RFK activity IC50): > 100 µM; activity at 100 µM (SpnFADS RFK activity; [10]): 84 ± 9%; MIC (S. pneumoniae ATCC 49619; Streptococcus pneumoniae, ATCC49619, 10 h; read-out: Minimal inhibitory concentration (MIC) S. pneumoniae): > 64 µM; MIC ([1]; Mycobacterium tuberculosis, ATCC27, 144 h; read-out: Minimal inhibitory concentration (MIC) M. tuberculosis): 16 to 32 µM (≈ 14.5 to 29 µg/mL); MIC ([2]; read-out: Minimal inhibitory concentration (MIC) C. ammoniagenes): 16 to 32 µM (≈ 14.5 to 29 µg/mL); ΔG (CaFADS; Site 3): -5.2 ± 0.7 kcal/mol; ΔH (CaFADS; Site 3): 18.4 ± 2.2 kcal/mol; −TΔS (CaFADS; Site 3): -23.6 ± 1.9 kcal/mol; N (binding stoichiometry) (CaFADS; Site 3 (low affinity site)): ≈ 1; Kd (CaFADS; Kd, 3% DMSO, for 24: Site 1–2, average value for two hit molecules where N ≈ 2): 1100 ± 100 nM; Kd (CaFADS; Kd, Site 3 (low affinity site)): 161000 ± 20000 nM |
| Cc1cc2c(C(C)C)c(O)c(O)c(C=O)c2c(O)c1-c1c(C)cc2c(C(C)C)c(O)c(O)c(C=O)c2c1O [HTS hit 27, gossypol] | 500 ± 100 | Non-competitive | Competitive | 80 ± 10 | 60 ± 10 | ≤ 5 | 6.9 ± 0.8 | 15.1 ± 1.5 | 10.0 ± 0.8 | 22.2 ± 1.4 | 18.1 ± 1.6 | 17.1 ± 3.3 | ≥ 75 | ≈ 2 | −8.4 ± 0.9^a kcal/mol | −3.1 ± 0.1^a kcal/mol | −5.3 ± 0.4^a kcal/mol | apparent kcat (CaFADS FMNAT activity; saturating ATP, varying FMN, inhibitor 0.05 μM): 21.6 ± 2.9 min⁻¹; apparent kcat (CaFADS FMNAT activity; saturating ATP, varying FMN, inhibitor 0.1 μM): 16.1 ± 1.7 min⁻¹; apparent kcat (CaFADS FMNAT activity; saturating ATP, varying FMN, inhibitor 1 μM): 6.5 ± 0.2 min⁻¹; apparent kcat (CaFADS FMNAT activity; saturating FMN, varying ATP, inhibitor 0.1 μM): 22.8 ± 1.3 min⁻¹; apparent kcat (CaFADS FMNAT activity; saturating FMN, varying ATP, inhibitor 1 μM): 12.5 ± 0.5 min⁻¹; IC50 (SpnFADS FMNAT activity): 51 ± 6 µM; remaining activity at 100 µM (SpnFADS FMNAT activity; read-out: FMNAT activity Res. activity): 0%; IC50 (SpnFADS RFK activity; RFK activity IC50, SpnFADS): 6 ± 1 µM; remaining activity at 100 µM (SpnFADS RFK activity; [10]): 25 ± 4%; MIC (S. pneumoniae ATCC 49619; Streptococcus pneumoniae, ATCC49619, 10 h, read-out: Minimal inhibitory concentration (MIC) S. pneumoniae): > 64 µM; MIC ([1]; Mycobacterium tuberculosis, ATCC27, 144 h, read-out: Minimal inhibitory concentration (MIC) M. tuberculosis): > 64 µM; MIC ([2]; read-out: Minimal inhibitory concentration (MIC) C. ammoniagenes, assayed 0.125–64 μM, 16 h at 37 °C, BHI): ~64 µM (≈ 33.2 µg/mL); Kd (CaFADS; 3% DMSO, for 24: Site 1–2, average value for two hit molecules where N ≈ 2, read-out: Kd): 700 ± 70 nM |
